{
  "source": "ChEMBL document CHEMBL5154636",
  "about": "“Discovery of STAT3 and Histone Deacetylase (HDAC) Dual-Pathway Inhibitors for the Treatment of Solid Cancer” (J Med Chem, 2021)",
  "key": {"MDA-MB-231 [1]": {"system": "MDA-MB-231", "assay": "Inhibition of colony formation in human MDA-MB-231 cells at 0.5 to 0.5 uM incubated for 24 hrs followed by culturing in fresh compound-free medium for 15 days by crystal violet dye based assay", "type": "functional, cell-based", "details": "dose 0.5-0.5 µM"}, "HCT-116": {"system": "HCT-116", "assay": "Cytotoxicity against human HCT-116 cells assessed as reduction in cell viability incubated for 48 hrs by MTT assay", "type": "functional, cell-based", "details": "HCT-116, 48 h"}, "Histone deacetylase": {"molecular_target": "Histone deacetylase", "assay": "Inhibition of HDAC in human MDA-MB-231 cells incubated for 24 hrs by fluorometric assay", "type": "cell-based"}, "[2]": {"molecular_target": "Histone deacetylase (Homo sapiens) (UniProt Q13547+O15379+Q9UBN7+Q92769+Q9UQL6+Q8WUI4+Q9BY41+Q96DB2+P56524+Q9UKV0+Q969S8)", "assay": "Inhibition of HDAC in human MDA-MB-231 cells assessed as increase in histone H3 acetylation incubated for 24 hrs by Western blot analysis", "type": "cell-based", "details": "dose 0.5-5 µM, DDE = dose-dependent effect"}, "Histone deacetylase 1": {"molecular_target": "Histone deacetylase 1 (Homo sapiens, UniProt Q13547)", "sequence (Q13547 whole entry)": "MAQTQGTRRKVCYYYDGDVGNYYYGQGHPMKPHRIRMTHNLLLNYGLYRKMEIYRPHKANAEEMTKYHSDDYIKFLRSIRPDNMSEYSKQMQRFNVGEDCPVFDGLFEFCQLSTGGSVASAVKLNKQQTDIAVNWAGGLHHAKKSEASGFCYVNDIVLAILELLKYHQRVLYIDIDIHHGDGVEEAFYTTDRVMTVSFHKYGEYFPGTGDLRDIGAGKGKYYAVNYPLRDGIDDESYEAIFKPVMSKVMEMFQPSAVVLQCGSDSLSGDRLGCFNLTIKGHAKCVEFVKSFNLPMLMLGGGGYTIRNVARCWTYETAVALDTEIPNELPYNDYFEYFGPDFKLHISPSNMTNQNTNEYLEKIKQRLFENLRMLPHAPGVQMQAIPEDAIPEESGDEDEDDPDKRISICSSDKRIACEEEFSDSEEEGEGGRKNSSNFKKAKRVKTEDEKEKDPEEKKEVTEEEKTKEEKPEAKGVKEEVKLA", "assay": "Inhibition of recombinant human HDAC1 using RHKK(Ac)AMC fluorogenic peptide as substrate by fluorescence assay"}, "[3]": {"molecular_target": "T1, Signal transducer and activator of transcription 3 (Homo sapiens, UniProt P40763)", "T1 sequence (P40763 whole entry)": "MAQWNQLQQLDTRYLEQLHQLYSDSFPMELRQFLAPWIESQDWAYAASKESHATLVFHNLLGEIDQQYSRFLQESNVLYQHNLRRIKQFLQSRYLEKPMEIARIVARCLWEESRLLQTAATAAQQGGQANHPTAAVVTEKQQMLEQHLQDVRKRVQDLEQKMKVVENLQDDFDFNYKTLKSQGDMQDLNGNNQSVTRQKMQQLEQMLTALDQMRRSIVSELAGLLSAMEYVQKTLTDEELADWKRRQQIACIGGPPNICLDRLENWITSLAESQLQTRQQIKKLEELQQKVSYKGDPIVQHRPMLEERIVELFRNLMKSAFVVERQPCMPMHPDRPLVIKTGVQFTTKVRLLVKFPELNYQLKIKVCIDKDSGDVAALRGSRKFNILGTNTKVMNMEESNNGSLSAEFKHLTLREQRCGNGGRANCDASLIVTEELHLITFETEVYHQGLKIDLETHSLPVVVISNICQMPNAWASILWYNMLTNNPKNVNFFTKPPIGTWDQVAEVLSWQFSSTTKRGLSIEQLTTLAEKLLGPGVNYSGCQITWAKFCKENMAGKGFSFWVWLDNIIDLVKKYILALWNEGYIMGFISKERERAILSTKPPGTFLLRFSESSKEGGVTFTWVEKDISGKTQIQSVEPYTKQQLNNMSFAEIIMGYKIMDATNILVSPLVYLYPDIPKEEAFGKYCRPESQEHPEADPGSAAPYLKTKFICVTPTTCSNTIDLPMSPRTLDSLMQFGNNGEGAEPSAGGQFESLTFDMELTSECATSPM", "assay": "Inhibition of STAT3 in human MDA-MB-231 cells assessed as decrease in Bcl-2 mRNA expression at 0.5 to 5 uM by qRT-PCR analysis", "type": "cell-based", "details": "dose 0.5-5 µM"}, "[4]": {"molecular_target": "T1, Signal transducer and activator of transcription 3", "assay": "Inhibition of STAT3 in human MDA-MB-231 cells assessed as decrease in cyclin D1 mRNA expression at 0.5 to 5 uM by qRT-PCR analysis", "type": "cell-based", "details": "dose 0.5-5 µM"}, "[5]": {"molecular_target": "T1, Signal transducer and activator of transcription 3", "assay": "Binding affinity to recombinant GST tagged STAT3 (unknown origin) assessed as association constant at equilibrium"}, "MDA-MB-231 [6]": {"system": "MDA-MB-231", "assay": "Effect on STAT3 in human MDA-MB-231 cells assessed as […] phosphorylation at 10 uM incubated for 24 hrs by Western blot analysis", "type": "functional, cell-based"}, "MDA-MB-231 [7]": {"system": "MDA-MB-231", "assay": "Induction of apoptosis in human MDA-MB-231 cells assessed as chromatin condensation at 0.5 to 5 uM incubated for 24 hrs by Hoechst 33258 staining based fluorescence microscopy analysis", "type": "functional, cell-based", "details": "dose 0.5-5 µM"}, "MDA-MB-231 [8]": {"system": "MDA-MB-231", "assay": "Induction of apoptosis in human MDA-MB-231 cells assessed as viable cells at 2 uM incubated for 24 hrs by Annexin-V/FITC and PI staining based flow cytometry analysis (reference value: 97.8%)", "type": "functional", "details": "read-out: Activity"}, "MDA-MB-231 [9]": {"system": "MDA-MB-231", "assay": "Induction of apoptosis in human MDA-MB-231 cells assessed as viable cells at 5 uM incubated for 24 hrs by Annexin-V/FITC and PI staining based flow cytometry analysis (reference value: 97.8%)", "type": "functional", "details": "read-out: Activity"}, "MDA-MB-231 [10]": {"system": "MDA-MB-231", "assay": "Induction of apoptosis in human MDA-MB-231 cells assessed as viable cells at 10 uM incubated for 24 hrs by Annexin-V/FITC and PI staining based flow cytometry analysis (reference value: 97.8%)", "type": "functional", "details": "read-out: Activity"}, "MDA-MB-231 [11]": {"system": "MDA-MB-231", "assay": "Induction of apoptosis in human MDA-MB-231 cells assessed as early apoptotic cells at 10 uM incubated for 24 hrs by Annexin-V/FITC and PI staining based flow cytometry analysis (reference value: 1.4%)", "type": "functional"}, "MDA-MB-231 [12]": {"system": "MDA-MB-231", "assay": "Induction of apoptosis in human MDA-MB-231 cells assessed as late apoptotic cells at 5 uM incubated for 24 hrs by Annexin-V/FITC and PI staining based flow cytometry analysis (reference value: 0.7%)", "type": "functional"}, "MDA-MB-231 [13]": {"system": "MDA-MB-231", "assay": "Induction of apoptosis in human MDA-MB-231 cells assessed as late apoptotic cells at 10 uM incubated for 24 hrs by Annexin-V/FITC and PI staining based flow cytometry analysis (reference value: 0.7%)", "type": "functional"}, "MDA-MB-231 [14]": {"system": "MDA-MB-231", "assay": "Induction of apoptosis in human MDA-MB-231 cells assessed as necrotic cells at 5 uM incubated for 24 hrs by Annexin-V/FITC and PI staining based flow cytometry analysis (reference value: 0.0%)", "type": "functional"}, "MDA-MB-231 [15]": {"system": "MDA-MB-231", "assay": "Induction of apoptosis in human MDA-MB-231 cells assessed as necrotic cells at 10 uM incubated for 24 hrs by Annexin-V/FITC and PI staining based flow cytometry analysis (reference value: 0.0%)", "type": "functional"}, "MDA-MB-231 [16]": {"system": "MDA-MB-231", "assay": "Induction of apoptosis in human MDA-MB-231 cells assessed as increase in cleaved capase-3 level at 0.5 to 5 uM incubated for 24 hrs by Western blot analysis", "type": "functional, cell-based", "details": "dose 0.5-5 µM"}, "MDA-MB-231 [17]": {"system": "MDA-MB-231", "assay": "Induction of apoptosis in human MDA-MB-231 cells assessed as increase in cleaved capase-7 level at 0.5 to 5 uM incubated for 24 hrs by Western blot analysis", "type": "functional, cell-based", "details": "dose 0.5-5 µM"}, "MDA-MB-231 [18]": {"system": "MDA-MB-231", "assay": "Induction of apoptosis in human MDA-MB-231 cells assessed as increase in cleaved PARP level at 0.5 to 5 uM incubated for 24 hrs by Western blot analysis", "type": "functional, cell-based", "details": "dose 0.5-5 µM"}, "MCF-10A": {"system": "MCF-10A", "assay": "Cytotoxicity against human MCF-10 A cells assessed as reduction in cell viability at 32 uM incubated for 48 hrs by MTT assay relative to control", "type": "toxicity, cell-based"}, "L02": {"system": "L02", "assay": "Cytotoxicity against human L02 cells assessed as reduction in cell viability at 32 uM incubated for 48 hrs by MTT assay relative to control", "type": "toxicity, cell-based", "details": "l02, 48 h"}, "[19]": {"assay": "Acute toxicity in po dosed ICR mouse assessed as maximum tolerated dose measured after 7 days", "type": "organism-based", "details": "in vivo, time 7 day"}, "[20]": {"assay": "Volume of distribution at steady state in Sprague-Dawley rat at 2 mg/kg, iv measured upto 24 hrs by LC-MS/MS analysis", "type": "ADME, organism-based", "details": "in vivo, read-out: Vdss"}, "[21]": {"assay": "Clearance in Sprague-Dawley rat at 2 mg/kg, iv measured upto 24 hrs by LC-MS/MS analysis", "type": "ADME, organism-based", "details": "in vivo"}, "[22]": {"assay": "Half life in Sprague-Dawley rat at 2 mg/kg, iv measured upto 24 hrs by LC-MS/MS analysis", "type": "ADME, organism-based", "details": "in vivo"}, "[23]": {"assay": "Oral bioavailability in Sprague-Dawley rat at 20 mg/kg measured upto 24 hrs by LC-MS/MS analysis", "type": "ADME, organism-based", "details": "in vivo"}, "[24]": {"assay": "Half life in Sprague-Dawley rat at 20 mg/kg, po measured upto 24 hrs by LC-MS/MS analysis", "type": "ADME, organism-based", "details": "in vivo"}, "4T1": {"system": "4T1", "assay": "Antitumor activity against mouse 4T1 cells allografted in BALB/c mouse assessed as reduction in tumor weight at 15 mg/kg, ip qd for 21 days by vernier caliper method relative to control", "type": "functional", "parameters": "scale not given: the % may be the effect or the level left", "details": "time 21 day"}, "[25]": {"assay": "Toxicity in BALB/c mousee assessed as change in body weight at 15 to 30 mg/kg, ip qd for 21 days", "type": "organism-based", "details": "mouse, in vivo, 504 h, dose 15-30 mg/kg, time 21 day"}, "[26]": {"molecular_target": "T1, Signal transducer and activator of transcription 3", "assay": "Inhibition of STAT3 in human MDA-MB-231 cells assessed as decrease in Bcl-2 protein expression at 0.5 to 5 uM after 24 hrs by Western blot analysis", "type": "cell-based", "details": "dose 0.5-5 µM"}},
  "note": "pIC50: −log10 of the molar value. Active and inactive are the calls of the source. The calls are words filed in the database; no cut-off is given here.",
  "data": [
    {"smiles": "COc1cc(/C=C/c2ccc(OCCCCCCC(=O)NO)cc2)cc(OC)c1", "values": [
      {"measurement": "inhibition", "setting": "MDA-MB-231 [1]", "value": "Active"},
      {"measurement": "pIC50", "setting": "HCT-116", "value": 5.97},
      {"measurement": "IC50", "setting": "Histone deacetylase", "value": 23.15, "unit": "nM"},
      {"measurement": "Activity", "setting": "[2]", "value": "Dde"},
      {"measurement": "pIC50", "setting": "Histone deacetylase 1", "value": 6.17},
      {"measurement": "inhibition", "setting": "[3]", "value": "Active"},
      {"measurement": "inhibition", "setting": "[4]", "value": "Active"},
      {"measurement": "Ka", "setting": "[5]", "value": 451000, "unit": "M⁻¹ s⁻¹"},
      {"measurement": "Activity", "setting": "MDA-MB-231 [6]", "value": "Active"},
      {"measurement": "Activity", "setting": "MDA-MB-231 [7]", "value": "Active"},
      {"measurement": "viability at 2 µM", "setting": "MDA-MB-231 [8]", "value": 89.3, "unit": "%"},
      {"measurement": "viability at 5 µM", "setting": "MDA-MB-231 [9]", "value": 80.8, "unit": "%"},
      {"measurement": "viability at 10 µM", "setting": "MDA-MB-231 [10]", "value": 40.5, "unit": "%"},
      {"measurement": "Activity", "setting": "MDA-MB-231 [11]", "value": 39.6, "unit": "%"},
      {"measurement": "Activity", "setting": "MDA-MB-231 [12]", "value": 3.9, "unit": "%"},
      {"measurement": "Activity", "setting": "MDA-MB-231 [13]", "value": 19.7, "unit": "%"},
      {"measurement": "Activity", "setting": "MDA-MB-231 [14]", "value": 0.2, "unit": "%"},
      {"measurement": "Activity", "setting": "MDA-MB-231 [15]", "value": 0.2, "unit": "%"},
      {"measurement": "Activity", "setting": "MDA-MB-231 [16]", "value": "Active"},
      {"measurement": "Activity", "setting": "MDA-MB-231 [17]", "value": "Active"},
      {"measurement": "Activity", "setting": "MDA-MB-231 [18]", "value": "Active"},
      {"measurement": "Activity", "setting": "MCF-10A", "value": 38, "unit": "%"},
      {"measurement": "Activity", "setting": "L02", "value": 32, "unit": "%"},
      {"measurement": "MTD at 168 h", "setting": "[19]", "value": "> 400", "unit": "mg/kg"},
      {"measurement": "Vd", "setting": "[20]", "value": 1.65, "unit": "L/kg"},
      {"measurement": "clearance", "setting": "[21]", "value": 63.9, "unit": "mL/min/kg"},
      {"measurement": "half-life", "setting": "[22]", "value": 28.2, "unit": "min"},
      {"measurement": "bioavailability", "setting": "[23]", "value": 5.81, "unit": "%"},
      {"measurement": "half-life", "setting": "[24]", "value": 52.8, "unit": "min"},
      {"measurement": "Activity", "setting": "4T1", "value": 53, "unit": "%"},
      {"measurement": "Activity", "setting": "[25]", "value": "Non-Toxic"},
      {"measurement": "inhibition", "setting": "[26]", "value": "Active"}
    ]}
  ]
}
